# System: 931267-113-T-J1-PDC KRAS spheroid with HUVEC/MSC, viability
# Test: Anticancer human tumor 931267-113-T-J1-PDC patient-derived colon adenocarcinoma cell line growth inhibition [KRAS2]
# Conditions: for IC50: curve of first compound; for viability, T/C: stronger effect = lower value
# Procedure, shortened: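 Combination screen of spheroid viability in tumor-cell co-cultures with endothelial (HUVEC) and mesenchymal stem cell stroma. Each agent was tested in half-log dilutions, topping at clinical Cmax or at 10 microM without a known Cmax.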
# [1] = second compound 0.1 µM, first compound 0.000316 µM
# [2] = second compound 0.1 µM, first compound 0.001 µM
# [3] = second compound 0.1 µM, first compound 0.00316 µM
# [4] = second compound 0.1 µM, first compound 0.01 µM
# [5] = second compound 0.1 µM, first compound 0.0316 µM
# [6] = second compound 0.316 µM, first compound 0.000316 µM
# [7] = second compound 0.316 µM, first compound 0.001 µM
# [8] = second compound 0.316 µM, first compound 0.00316 µM
# [9] = second compound 0.316 µM, first compound 0.01 µM
# [10] = second compound 0.316 µM, first compound 0.0316 µM
# [11] = second compound 1 µM, first compound 0.000316 µM
# [12] = second compound 1 µM, first compound 0.001 µM
# [13] = second compound 1 µM, first compound 0.00316 µM
# [14] = second compound 1 µM, first compound 0.01 µM
# [15] = second compound 1 µM, first compound 0.0316 µM
# [16] = second compound 3.16 µM, first compound 0.000316 µM
# [17] = second compound 3.16 µM, first compound 0.001 µM
# [18] = second compound 3.16 µM, first compound 0.00316 µM
# [19] = second compound 3.16 µM, first compound 0.01 µM
# [20] = second compound 3.16 µM, first compound 0.0316 µM
# [21] = second compound 10 µM, first compound 0.000316 µM
# [22] = second compound 10 µM, first compound 0.001 µM
# [23] = second compound 10 µM, first compound 0.00316 µM
# [24] = second compound 10 µM, first compound 0.01 µM
# [25] = second compound 10 µM, first compound 0.0316 µM
# [26] = second compound 0.1 µM, first compound 0.1 µM
# [27] = second compound 0.316 µM, first compound 0.1 µM
# [28] = second compound 1 µM, first compound 0.1 µM
# [29] = second compound 3.16 µM, first compound 0.1 µM
# [30] = second compound 10 µM, first compound 0.1 µM
# 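Note: compound exposure lasted 7 days before the readout.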
# 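Throughout, for viability, T/C: 100% = DMSO vehicle control viability.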
smiles,measurement,setting,value
CC(=O)Nc1cccc(-n2c(=O)n(C3CC3)c(=O)c3c(Nc4ccc(I)cc4F)n(C)c(=O)c(C)c32)c1 + COc1cc2nc(C)nc(NC(C)c3cc(N)cc(C(F)(F)F)c3)c2cc1OC1CCOC1,IC50,second compound 0.1 µM,0.0103 µM
same,IC50,second compound 0.316 µM,0.00576 µM
same,IC50,second compound 1 µM,0.00982 µM
same,IC50,second compound 3.16 µM,0.00773 µM
same,IC50,second compound 10 µM,< 0.0001 µM
same,"viability, T/C","second compound 0.1 µM, first compound 0.0001 µM",75.8%
same,"viability, T/C",[1],75.3%
same,"viability, T/C",[2],77.1%
same,"viability, T/C",[3],72.5%
same,"viability, T/C",[4],51%
same,"viability, T/C",[5],15.7%
same,"viability, T/C","second compound 0.316 µM, first compound 0.0001 µM",76.9%
same,"viability, T/C",[6],60.6%
same,"viability, T/C",[7],64.8%
same,"viability, T/C",[8],51.3%
same,"viability, T/C",[9],50%
same,"viability, T/C",[10],13.7%
same,"viability, T/C","second compound 1 µM, first compound 0.0001 µM",87%
same,"viability, T/C",[11],71.7%
same,"viability, T/C",[12],73.8%
same,"viability, T/C",[13],66.1%
same,"viability, T/C",[14],52.1%
same,"viability, T/C",[15],14.1%
same,"viability, T/C","second compound 3.16 µM, first compound 0.0001 µM",91.3%
same,"viability, T/C",[16],82.1%
same,"viability, T/C",[17],75.1%
same,"viability, T/C",[18],59.5%
same,"viability, T/C",[19],52%
same,"viability, T/C",[20],19.6%
same,"viability, T/C","second compound 10 µM, first compound 0.0001 µM",21.4%
same,"viability, T/C",[21],37.6%
same,"viability, T/C",[22],20.4%
same,"viability, T/C",[23],2.31%
same,"viability, T/C",[24],14.3%
same,"viability, T/C",[25],1.54%
CN(C)C/C=C/C(=O)Nc1cc2c(Nc3ccc(F)c(Cl)c3)ncnc2cc1O[C@H]1CCOC1 + COc1cc2nc(C)nc(NC(C)c3cc(N)cc(C(F)(F)F)c3)c2cc1OC1CCOC1,IC50,second compound 0.1 µM,> 0.1 µM
same,IC50,second compound 0.316 µM,> 0.1 µM
same,IC50,second compound 1 µM,> 0.1 µM
same,IC50,second compound 3.16 µM,> 0.1 µM
same,IC50,second compound 10 µM,> 0.1 µM
same,"viability, T/C",[1],96.2%
same,"viability, T/C",[2],92.8%
same,"viability, T/C",[3],75.7%
same,"viability, T/C",[4],87.5%
same,"viability, T/C",[5],103%
same,"viability, T/C",[26],116%
same,"viability, T/C",[6],81.8%
same,"viability, T/C",[7],75%
same,"viability, T/C",[8],90.3%
same,"viability, T/C",[9],87.6%
same,"viability, T/C",[10],85.2%
same,"viability, T/C",[27],93.5%
same,"viability, T/C",[11],87.7%
same,"viability, T/C",[12],92.5%
same,"viability, T/C",[13],104%
same,"viability, T/C",[14],89.8%
same,"viability, T/C",[15],100%
same,"viability, T/C",[28],94%
same,"viability, T/C",[16],72.8%
same,"viability, T/C",[17],72.8%
same,"viability, T/C",[18],88.1%
same,"viability, T/C",[19],74.9%
same,"viability, T/C",[20],97.2%
same,"viability, T/C",[29],108%
same,"viability, T/C",[21],69.6%
same,"viability, T/C",[22],78.8%
same,"viability, T/C",[23],77%
same,"viability, T/C",[24],88.6%
same,"viability, T/C",[25],102%
same,"viability, T/C",[30],83.7%
COC(=O)c1ccc2c(C(=Nc3ccc(N(C)C(=O)CN4CCN(C)CC4)cc3)c3ccccc3)c(O)[nH]c2c1 + COc1cc2nc(C)nc(NC(C)c3cc(N)cc(C(F)(F)F)c3)c2cc1OC1CCOC1,IC50,second compound 0.1 µM,1.41 µM
same,IC50,second compound 0.316 µM,0.962 µM
same,IC50,second compound 1 µM,0.513 µM
same,IC50,second compound 3.16 µM,0.637 µM
same,IC50,second compound 10 µM,< 0.0316 µM
same,"viability, T/C",[5],88.1%
same,"viability, T/C",[26],97.5%
same,"viability, T/C","second compound 0.1 µM, first compound 0.316 µM",69.8%
same,"viability, T/C","second compound 0.1 µM, first compound 1 µM",71.1%
same,"viability, T/C","second compound 0.1 µM, first compound 3.16 µM",0.65%
same,"viability, T/C","second compound 0.1 µM, first compound 10 µM",0.3%
same,"viability, T/C",[10],77.5%
same,"viability, T/C",[27],68.3%
same,"viability, T/C","second compound 0.316 µM, first compound 0.316 µM",55.2%
same,"viability, T/C","second compound 0.316 µM, first compound 1 µM",50%
same,"viability, T/C","second compound 0.316 µM, first compound 3.16 µM",0.3%
same,"viability, T/C","second compound 0.316 µM, first compound 10 µM",0.83%
same,"viability, T/C",[15],73%
same,"viability, T/C",[28],95.2%
same,"viability, T/C","second compound 1 µM, first compound 0.316 µM",57.6%
same,"viability, T/C","second compound 1 µM, first compound 1 µM",33.5%
same,"viability, T/C","second compound 1 µM, first compound 3.16 µM",0.48%
same,"viability, T/C","second compound 1 µM, first compound 10 µM",0.34%
same,"viability, T/C",[20],95.6%
same,"viability, T/C",[29],88.3%
same,"viability, T/C","second compound 3.16 µM, first compound 0.316 µM",78.2%
same,"viability, T/C","second compound 3.16 µM, first compound 1 µM",32.5%
same,"viability, T/C","second compound 3.16 µM, first compound 3.16 µM",0.32%
same,"viability, T/C","second compound 3.16 µM, first compound 10 µM",0.26%
same,"viability, T/C",[25],7.41%
same,"viability, T/C",[30],2.82%
same,"viability, T/C","second compound 10 µM, first compound 0.316 µM",0.58%
same,"viability, T/C","second compound 10 µM, first compound 1 µM",0.41%
same,"viability, T/C","second compound 10 µM, first compound 3.16 µM",0.41%
same,"viability, T/C","second compound 10 µM, first compound 10 µM",0.26%

# Source: PubChem BioAssay AID1963863 (Molecular Pharmacology Branch, DTP, NCI, 2024)
